Measurements as given in EP4670733A1, “METHODS FOR PREPARING VIRAL PROTEINS AND USES THEREOF” (priority 2024, dated 2025).

How the values were obtained:
[1] = tested on: NA enzyme; experiment: NA enzymatic activity, MUNANA assay; assay type: biochemical, influenza virus; conditions: drug substance (Sample E6)
[2] = Endotoxin content, limulus amoebocyte lysate (LAL) assay; conditions: drug substance (Sample E6)
[3] = tested on: B/Phuket/3073/2013 virus strain; set-up: species or system influenza virus
[4] = tested on: B/Phuket/3073/2013 virus strain; experiment: HA content by SRID; set-up: species or system influenza virus
[5] = tested on: B/Phuket/3073/2013 virus strain; experiment: Splitting efficiency by ultracentrifugation in sucrose gradient; set-up: species or system influenza virus

Substance	NA enzymatic activity: NA activity [1] [µmol/mL/h]	NA enzymatic activity: Specific activity [1] [µmol/mg/h]	Endotoxin content [2] [EU/mL]	Residual infectious virus [3]	HA content in µg/mL (SRID) [4] [µg/mL]	Splitting efficiency (ultracentrifugation in sucrose gradient) [5]
C11-15-secondary alcohol ethoxylates	228	1915	< 0.5	No Residual infectious virus	241.24	
Triton X-100	155		< 0.5	No Residual infectious virus	269.97	Conform* (Max total protein by OD280 at 40%sucrose for whole virus and lower than 30%sucrose for split virus.)
